Key:
[1] = General toxicology NOAEL, rat; design: AUC: dose or concentration left out as unconfirmed; settings: in vivo
[2] = cited from earlier work
[3] = Phase 1 IV and oral migalastat HCl pharmacokinetics in healthy volunteers; type: in vivo, human
Experimental: Healthy volunteers received migalastat HCl via the IV route of administration to evaluate safety, tolerability, and pharmacokinetics. Another study was performed to determine the absolute bioavailability of migalastat after an oral capsule dose as compared to an IV administered dose of migalastat HCl in healthy volunteers.
Type of Study: This Phase 1 study was a single-center study consisting of 2 designs. Cohorts 1, 2, and 3 were performed according to a randomized, double-blind, placebo-controlled, single ascending dose (SAD) IV study design to evaluate the safety, tolerability, and PK of IV administered migalastat HCl or IV administered placebo in healthy subjects. Cohort 4 was an open-label, randomized two-way crossover arm designed to assess the absolute bioavailability of orally administered migalastat HCl relative to IV administered migalastat HCl in healthy subjects.
Cohorts 1, 2, 3: Subjects in Cohorts 1, 2, and 3 received IV administered single ascending doses of migalastat HCl. Seven subjects were enrolled into each cohort (5 subjects randomized to migalastat HCl and 2 subjects randomized to placebo). Dosing of Cohorts 1, 2, and 3 was staggered to allow for safety and tolerability review before proceeding with the next group. Therefore, Cohorts 1, 2, and 3 were each divided into 2 sub-groups: Group A (2 subjects randomized to migalastat HCl and 1 subject randomized to placebo) and Group B (3 subjects randomized to migalastat HCl and 1 subject randomized to placebo). Subjects in Group B were dosed the day following completion of Group A dosing. Except for Cohort 3B, which was dosed 31 days after Cohort 3A because an interim PK review was performed on emerged data from Cohort 3A.
Cohort 4 was randomized such that 5 subjects received the oral formulation and 5 subjects received the IV formulation during Period 1, followed by the alternate formulation during Period 2. • *During Period 1, all Day −1 through Day 3 assessments were performed. ** The washout period was 7 days. *** During Period 2, subjects repeated all Day −1 through Day 3 assessments.
Subjects enrolled in Cohorts 1, 2, and 3 were randomized to receive one of the following doses of migalastat HCl (n=5) or placebo (n=2):

[4] = Predicted human migalastat exposure after single IV dose and exposure margins
Description: (§1) Selection of Doses in the Study: The current single dose levels were selected on the basis of predicted human PK following IV dosing, non-clinical safety margins, and target therapeutic migalastat exposures for efficacy.

in vivo = settings: monkey, 500 mg/kg/day
Description: as §1

[5] = human, in vivo, po, 1250 mg
GL-3 and plasma lyso-Gb3 [6] = assay: Single bolus IV administration efficacy, necropsy 7 days after dose (Example 10); type: in vivo, Gla KO mice
Experimental: The efficacy of rhα-Gal A 01-003 with and without migalastat and Fabrazyme (agalsidase beta) were compared. Enzyme was administered via a single bolus infusion into Gla KO mice with or without co-formulation with migalastat. ˜18 week old male Gla KO mice (7 per group) were given a single bolus IV administration and necropsies were performed 7 days after dose. The treatment groups are shown in Table 15 and the results are shown in FIGS. 21A-21D and Tables 16-19.

GL-3 and plasma lyso-Gb3 [7] = assay: Repeat administration efficacy, two bi-weekly IV administrations (Example 9); type: in vivo, Gla KO mice; settings: enzyme alone, 1 to 10 mg/kg
Experimental: The efficacy of rhα-Gal A 01-003 with and without migalastat and Fabrazyme (agalsidase beta) were compared. Enzyme was administered via a bolus infusion into Gla KO mice with or without co-formulation with 3 mg/kg migalastat. ˜16 week old male Gla KO mice (n=8; 72 in total) were given two bi-weekly IV administrations.

GL-3 = GL-3 one week after single IV administration (Example 7); type: in vivo, Gla KO mice; settings: 1 mg/kg enzyme IV, one week post-administration
Experimental: Gla KO mice were administered 1 mg/kg of enzyme IV and GL-3 measured one week post-administration.

GL-3 and plasma lyso-Gb3 [8] = assay: Substrate reduction seven days after single administration (Example 6); type: in vivo, Gla KO mice; settings: 3 mg/kg enzyme
Experimental: The effect on substrate reduction when combining these enzymes in a co-formulation with migalastat was also assessed. […]
In addition to assessment of enzyme activity in tissues, the degree of substrate reduction seven days post-administration was determined.

For `Cl.OC[C@H]1NC[C@H](O)[C@@H](O)[C@H]1O` [Migalastat HCl, migalastat HCl], the AUC [1] is given as 249 µg·h/mL, the “Cmax at Rat NOAEL” value ([1]; 1500 μg/kg/day) is given as 23400 ng/mL and the exposure linearity ([2]; oral administrations, to 1250 mg) is given as “linear exposures”. The “tissue uptake of active α-Gal A into skin” value ([2]; phase 2a, 23 Fabry patients, single oral 150 mg co-administered with 0.2, 0.5, and 1.0 mg/kg agalsidase) was “improved tissue uptake of active α-Gal A into skin”, the “maximum arithmetic mean plasma concentration, IV dosing relative to oral dosing” value ([3]; 150 mg IV vs 150 mg oral) was “approximately 2 fold” and the “time of maximum arithmetic mean plasma concentration after start of infusion” value ([3]; IV 150 mg, 2-hour infusion) was 2 h. For the same compound, the “dose dependence of mean plasma concentration-time profiles” value ([3]; increasing IV doses 0.3 to 10 mg/kg) was “clear dose-dependent increase in plasma concentrations”, the “time of maximum arithmetic mean plasma concentration after start of infusion” value ([3]; single 2-hour IV infusion, 0.3 to 10 mg/kg) was 2 h and the “Fold Cover to AUC from human oral 1250 mg, Max” value ([4]; 0.3 mg/kg IV) was 62. For the same compound, the “Fold Cover to AUC from human oral 1250 mg, Median” value ([4]; 0.3 mg/kg IV) was 39, the “Fold Cover to AUC from human oral 1250 mg, Min” value ([4]; 0.3 mg/kg IV) was 15.5 and the “Fold Cover to Cmax from human oral 1250 mg, Max” value ([4]; 0.3 mg/kg IV) was 61. The “Fold Cover to Cmax from human oral 1250 mg, Median” value ([4]; 0.3 mg/kg IV) was 36, the “Fold Cover to Cmax from human oral 1250 mg, Min” value ([4]; 0.3 mg/kg IV) was 2.6 and the “Fold Cover to NOAEL AUC, Monkey” value ([4]; 0.3 mg/kg IV) was 165. For the same compound, the “Fold Cover to NOAEL AUC, Rat” value ([4]; 0.3 mg/kg IV) was 134, the “Fold Cover to NOAEL Cmax, Monkey” value ([4]; 0.3 mg/kg IV) was 68 and the “Fold Cover to NOAEL Cmax, Rat” value ([4]; 0.3 mg/kg IV) was 65. The “Fold Cover to AUC from human oral 1250 mg, Max” value ([4]; 10.0 mg/kg IV) was 1.89, the “Fold Cover to AUC from human oral 1250 mg, Median” value ([4]; 10.0 mg/kg IV) was 1.19 and the “Fold Cover to AUC from human oral 1250 mg, Min” value ([4]; 10.0 mg/kg IV) was 0.47. The “Fold Cover to Cmax from human oral 1250 mg, Max” value ([4]; 10.0 mg/kg IV) was 1.81, the “Fold Cover to Cmax from human oral 1250 mg, Median” value ([4]; 10.0 mg/kg IV) was 1.07 and the “Fold Cover to Cmax from human oral 1250 mg, Min” value ([4]; 10.0 mg/kg IV) was 0.08. For the same compound, the “Fold Cover to NOAEL AUC, Monkey” value ([4]; 10.0 mg/kg IV) was 4.98, the “Fold Cover to NOAEL AUC, Rat” value ([4]; 10.0 mg/kg IV) was 4.05 and the “Fold Cover to NOAEL Cmax, Monkey” value ([4]; 10.0 mg/kg IV) was 2.02. The “Fold Cover to NOAEL Cmax, Rat” value ([4]; 10.0 mg/kg IV) was 1.93, the AUC (in vivo) was 306 µg·h/mL and the “Maximum observed individual AUC” value [5] was 115.9 µg·h/mL. The “Maximum observed individual Cmax” value [5] was 21900 ng/mL, the “Median observed individual AUC” value [5] was 73.2 µg·h/mL and the “Median observed individual Cmax” value [5] was 13000 ng/mL. The “Minimum observed individual AUC” value [5] was 28.9 µg·h/mL, the “Minimum observed individual Cmax” value [5] was 4780 ng/mL and the “maximum exposure (AUC)” value [5] was 116 µg·h/mL.

With “Fabrazyme: homodimeric recombinant human α-Gal A marketed by Genzyme under the name Fabrazyme” the “GL-3 levels Heart” value (GL-3 and plasma lyso-Gb3 [6]; 1 mg/kg) was 183.23 μg/g tissue, the “GL-3 levels Kidney” value (GL-3 and plasma lyso-Gb3 [6]; 1 mg/kg) was 443 μg/g tissue and the “GL-3 levels Skin” value (GL-3 and plasma lyso-Gb3 [6]; 1 mg/kg) was 1465 μg/g tissue. For the same compound, the “Plasma lyso-Gb3 levels” value (GL-3 and plasma lyso-Gb3 [6]; 1 mg/kg) was 122 ng/mL, the “GL-3 levels Heart” value (GL-3 and plasma lyso-Gb3 [6]; 10 mg/kg) was 53.20 μg/g tissue and the “GL-3 levels Kidney” value (GL-3 and plasma lyso-Gb3 [6]; 10 mg/kg) was 281 μg/g tissue. The “GL-3 levels Skin” value (GL-3 and plasma lyso-Gb3 [6]; 10 mg/kg) was 207 μg/g tissue, the “Plasma lyso-Gb3 levels” value (GL-3 and plasma lyso-Gb3 [6]; 10 mg/kg) was 29.5 ng/mL and the “GL-3 levels Heart” value (GL-3 and plasma lyso-Gb3 [6]; 25 mg/kg) was 21.10 μg/g tissue. For the same compound, the “GL-3 levels Kidney” value (GL-3 and plasma lyso-Gb3 [6]; 25 mg/kg) was 203 μg/g tissue, the “GL-3 levels Skin” value (GL-3 and plasma lyso-Gb3 [6]; 25 mg/kg) was 102 μg/g tissue and the “Plasma lyso-Gb3 levels” value (GL-3 and plasma lyso-Gb3 [6]; 25 mg/kg) was 18.1 ng/mL. For the same compound, the “GL-3 in heart and kidney, dose-response” value (GL-3 and plasma lyso-Gb3 [7]) was “good dose-response” and the “GL-3 in skin and plasma lyso-GB3, dose-response” value (GL-3 and plasma lyso-Gb3 [7]) was “good dose-response”.

With “rhα-Gal A 01-003: recombinant human α-galactosidase A produced by CHO cell clone 01-003” the “α-Gal A substrate (GL-3) in heart and kidney” value (GL-3) was “able to reduce α-Gal A substrate in heart and kidney”, the “GL-3 levels Heart” value (GL-3 and plasma lyso-Gb3 [6]; 10 mg/kg) was 30.30 μg/g tissue and the “GL-3 levels Kidney” value (GL-3 and plasma lyso-Gb3 [6]; 10 mg/kg) was 277 μg/g tissue. The “GL-3 levels Skin” value (GL-3 and plasma lyso-Gb3 [6]; 10 mg/kg) was 149 μg/g tissue, the “Heart GL-3 % reduction compared to Fabrazyme (10 mg/kg)” value (GL-3 and plasma lyso-Gb3 [6]; 10 mg/kg) was 43.05% and the “Kidney GL-3 % reduction compared to Fabrazyme (10 mg/kg)” value (GL-3 and plasma lyso-Gb3 [6]; 10 mg/kg) was 1.42%. For the same compound, the “Plasma lyso-Gb3 % reduction compared to Fabrazyme (10 mg/kg)” value (GL-3 and plasma lyso-Gb3 [6]; 10 mg/kg) was 2.71%, the “Plasma lyso-Gb3 levels” value (GL-3 and plasma lyso-Gb3 [6]; 10 mg/kg) was 28.7 ng/mL and the “Skin GL-3 % reduction compared to Fabrazyme (10 mg/kg)” value (GL-3 and plasma lyso-Gb3 [6]; 10 mg/kg) was 28.02%. The “overall substrate reduction (GL-3 and lyso-Gb3)” value (GL-3 and plasma lyso-Gb3 [6]; rhα-Gal A 10 mg/kg) was “greater substrate reduction than an equivalent dose of Fabrazyme”, the “GL-3 in heart and kidney, dose-response” value (GL-3 and plasma lyso-Gb3 [7]) was “good dose-response” and the “GL-3 in skin and plasma lyso-GB3, dose-response” value (GL-3 and plasma lyso-Gb3 [7]) was “good dose-response”.

With “rhα-Gal A 04-023: recombinant human α-galactosidase A produced by CHO cell clone 04-023” the “plasma lyso-Gb3 compared to Fabrazyme alone (1 mg/kg)” value (GL-3 and plasma lyso-Gb3 [8]; seven days) was “significantly lower levels of plasma lyso-Gb3”, the “reduction of GL-3 in heart tissue compared to 1 mg/kg Fabrazyme” value (GL-3 and plasma lyso-Gb3 [8]; seven days (FIG. 15A)) was “significantly enhanced reduction of GL-3” and the “reduction in GL-3 in kidney” value (GL-3 and plasma lyso-Gb3 [8]; seven days (FIG. 15B)) was “enhanced substrate reduction”. The “GL-3 in skin compared to Fabrazyme alone (1 mg/kg)” value (GL-3 and plasma lyso-Gb3 [8]; seven days (FIG. 15C)) was “significantly lower level of GL-3 in skin”.

Source: patent publication US11357834B2, “Recombinant α-galactosidase A for treatment of Fabry disease” (Amicus Therapeutics, Inc., priority 2017, dated 2022)
